Test results taken from ChEMBL document CHEMBL3352414, “Structure based inhibitor design targeting glycogen phosphorylase B. Virtual screening, synthesis, biochemical and biological assessment of novel N-acyl-β-d-glucopyranosylamines” (Bioorg Med Chem, 2014).

Tests used:
[1] = Permeability in human Caco2 cells; assay type: ADME, cell-based; conditions: Caco-2, read-out: permeability
[2] = Octanol water partition coefficient, logP of the compound; assay type: physicochemical
[3] = target: T1, Glycogen phosphorylase, muscle form (Oryctolagus cuniculus, UniProt P00489); test: Inhibition of rabbit skeletal muscle glycogen phosphorylase b assessed as inorganic phosphate release
T1 sequence (P00489 whole entry): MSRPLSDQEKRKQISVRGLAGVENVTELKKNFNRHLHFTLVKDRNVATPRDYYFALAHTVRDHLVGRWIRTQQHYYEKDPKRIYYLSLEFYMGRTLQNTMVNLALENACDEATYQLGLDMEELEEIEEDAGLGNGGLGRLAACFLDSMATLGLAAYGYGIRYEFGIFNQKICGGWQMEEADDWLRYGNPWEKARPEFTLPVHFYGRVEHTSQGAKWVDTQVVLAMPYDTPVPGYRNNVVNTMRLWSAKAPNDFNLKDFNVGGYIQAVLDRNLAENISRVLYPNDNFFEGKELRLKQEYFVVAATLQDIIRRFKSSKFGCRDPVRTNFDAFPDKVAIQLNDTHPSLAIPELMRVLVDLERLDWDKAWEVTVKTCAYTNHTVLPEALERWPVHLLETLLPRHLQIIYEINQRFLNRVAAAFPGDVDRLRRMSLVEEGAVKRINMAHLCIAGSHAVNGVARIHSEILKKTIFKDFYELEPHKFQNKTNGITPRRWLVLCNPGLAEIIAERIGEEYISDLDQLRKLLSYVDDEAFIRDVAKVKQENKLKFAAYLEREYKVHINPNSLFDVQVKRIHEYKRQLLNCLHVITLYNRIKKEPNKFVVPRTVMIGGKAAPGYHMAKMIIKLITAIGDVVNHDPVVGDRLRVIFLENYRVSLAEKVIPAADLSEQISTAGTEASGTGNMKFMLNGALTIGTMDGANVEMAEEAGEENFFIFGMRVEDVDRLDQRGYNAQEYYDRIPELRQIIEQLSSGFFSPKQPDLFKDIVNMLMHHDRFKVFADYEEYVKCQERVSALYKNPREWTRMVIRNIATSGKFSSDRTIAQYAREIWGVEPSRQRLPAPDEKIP

Row | SMILES | Papp [1] | logP [2] | Ki ([3]; read-out: Ki) | Ki [3]
1 | Cc1ccccc1[C@H](Cc1ccco1)C(=O)N[C@@H]1O[C@H](CO)[C@@H](O)[C@H](O)[C@H]1O | 12.2 ×10⁻⁶ cm/s | 0.004 | – | –
2 | N[C@@H](Cc1c[nH]c2ccccc12)C(=O)N[C@@H]1O[C@H](CO)[C@@H](O)[C@H](O)[C@H]1O | 0.4 ×10⁻⁶ cm/s | -2.1 | – | –
3 | O=C(N[C@@H]1O[C@H](CO)[C@@H](O)[C@H](O)[C@H]1O)[C@H](O)[C@@H](O)[C@@H](O)[C@H](O)CO | – | – | 225 µM | –
4 | O=C(N[C@@H]1O[C@H](CO)[C@@H](O)[C@H](O)[C@H]1O)c1cccc2ccccc12 | – | – | 10 µM | –
5 | O=C(Nc1ccc2ccccc2c1)C(=O)N[C@@H]1O[C@H](CO)[C@@H](O)[C@H](O)[C@H]1O | – | – | 56 µM | –
6 | O=C(C[C@H]1CC(=O)c2c(F)cc(F)cc21)N[C@@H]1O[C@H](CO)[C@@H](O)[C@H](O)[C@H]1O | 3.17 ×10⁻⁶ cm/s | -1.21 | – | –
7 | O=C(N[C@@H]1O[C@H](CO)[C@@H](O)[C@H](O)[C@H]1O)[C@H](O)[C@@H](O)[C@H](O)[C@H](O)CO | – | – | 341 µM | –
8 | CC(C)(Oc1ccc2ccccc2c1)C(=O)N[C@@H]1O[C@H](CO)[C@@H](O)[C@H](O)[C@H]1O | 10.6 ×10⁻⁶ cm/s | 0.037 | – | –
9 | O=C(N[C@@H]1O[C@H](CO)[C@@H](O)[C@H](O)[C@H]1O)c1ccccc1 | – | – | 81 µM | –
10 | O=C(CCNC(=O)c1ccc(F)c(F)c1)N[C@@H]1O[C@H](CO)[C@@H](O)[C@H](O)[C@H]1O | 3.14 ×10⁻⁶ cm/s | -0.807 | – | –
11 | COc1ccc(/C=C/C(=O)N[C@@H]2O[C@H](CO)[C@@H](O)[C@H](O)[C@H]2O)c(O)c1 | 3.89 ×10⁻⁶ cm/s | -0.958 | – | –
12 | O=C(O)C(=O)N[C@@H]1O[C@H](CO)[C@@H](O)[C@H](O)[C@H]1O | – | – | 710 µM | –
13 | O=C(N[C@@H]1O[C@H](CO)[C@@H](O)[C@H](O)[C@H]1O)C1=Cc2cc(Cl)ccc2OC1 | 9.4 ×10⁻⁶ cm/s | -0.169 | – | –
14 | C[C@H](CC(=O)N[C@@H]1O[C@H](CO)[C@@H](O)[C@H](O)[C@H]1O)c1ccc(C(C)(C)C)cc1 | 9.77 ×10⁻⁶ cm/s | 0.33 | – | –
15 | O=C(N[C@@H]1O[C@H](CO)[C@@H](O)[C@H](O)[C@H]1O)C(c1ccccc1)c1ccccc1 | – | – | – | Not Active
16 | O=C(Nc1cccc2ccccc12)C(=O)N[C@@H]1O[C@H](CO)[C@@H](O)[C@H](O)[C@H]1O | – | – | 144 µM | –
17 | COC(=O)CCCC(=O)N[C@@H]1O[C@H](CO)[C@@H](O)[C@H](O)[C@H]1O | – | – | 83 µM | –
18 | O=C(N[C@@H]1O[C@H](CO)[C@@H](O)[C@H](O)[C@H]1O)C(F)(F)F | – | – | 81 µM | –
19 | C[C@@H]1C[C@@]1(C(=O)N[C@@H]1O[C@H](CO)[C@@H](O)[C@H](O)[C@H]1O)c1cccc2ccccc12 | 14.5 ×10⁻⁶ cm/s | 0.255 | – | –
20 | O=C(NC(=O)c1ccccn1)N[C@@H]1O[C@H](CO)[C@@H](O)[C@H](O)[C@H]1O | – | – | 68 µM | –

Row | SMILES | Papp [1] | logP [2] | Ki ([3]; read-out: Ki) | Ki [3]
21 | O=C(Nc1ccc2ccccc2c1)N[C@@H]1O[C@H](CO)[C@@H](O)[C@H](O)[C@H]1O | – | – | 5.2 µM | –
22 | O=C(Nc1ccccc1)N[C@@H]1O[C@H](CO)[C@@H](O)[C@H](O)[C@H]1O | – | – | 18 µM | –
23 | CC(=O)N[C@@H]1O[C@H](CO)[C@@H](O)[C@H](O)[C@H]1O | – | – | 32 µM | –
24 | O=C(NC(=O)c1cc2ccccc2[nH]1)N[C@@H]1O[C@H](CO)[C@@H](O)[C@H](O)[C@H]1O | – | – | 4 µM | –
25 | COc1cc(/C=C/C(=O)N[C@@H]2O[C@H](CO)[C@@H](O)[C@H](O)[C@H]2O)cc(OC)c1 | 8 ×10⁻⁶ cm/s | -0.36 | – | –
26 | O=C(C[C@H](c1ccc(Cl)cc1)C1CC1)N[C@@H]1O[C@H](CO)[C@@H](O)[C@H](O)[C@H]1O | 6.97 ×10⁻⁶ cm/s | 0.083 | – | –
27 | CC(C)(C)c1ccc(/C=C/C(=O)N[C@@H]2O[C@H](CO)[C@@H](O)[C@H](O)[C@H]2O)cc1 | 8.77 ×10⁻⁶ cm/s | 0.496 | – | –
28 | O=C(Nc1ccccc1)C(=O)N[C@@H]1O[C@H](CO)[C@@H](O)[C@H](O)[C@H]1O | – | – | 100 µM | –
29 | N[C@H](Cc1c[nH]c2ccccc12)C(=O)N[C@@H]1O[C@H](CO)[C@@H](O)[C@H](O)[C@H]1O | 0.47 ×10⁻⁶ cm/s | -2.09 | – | –
30 | CCc1ccc([C@H](C)CC(=O)N[C@@H]2O[C@H](CO)[C@@H](O)[C@H](O)[C@H]2O)cc1 | 8.9 ×10⁻⁶ cm/s | -0.162 | 377 µM | –
31 | O=C(Nc1ccccn1)C(=O)N[C@@H]1O[C@H](CO)[C@@H](O)[C@H](O)[C@H]1O | – | – | 230 µM | –
32 | CC(C)(C)c1ccc(C(=O)NC(=O)N[C@@H]2O[C@H](CO)[C@@H](O)[C@H](O)[C@H]2O)cc1 | – | – | 0.7 µM | –
33 | O=C1Cc2ccc(Cl)cc2C=C1C(=O)N[C@@H]1O[C@H](CO)[C@@H](O)[C@H](O)[C@H]1O | 3.85 ×10⁻⁶ cm/s | -0.221 | – | –
34 | Cc1ccc2c(c1)C=C(C(=O)N[C@@H]1O[C@H](CO)[C@@H](O)[C@H](O)[C@H]1O)C(=O)C2 | 3.62 ×10⁻⁶ cm/s | -0.451 | – | –
35 | COC(=O)c1ccc(/C=C/C(=O)N[C@@H]2O[C@H](CO)[C@@H](O)[C@H](O)[C@H]2O)cc1 | 2.63 ×10⁻⁶ cm/s | -0.805 | – | –
36 | O=C(NC(=O)c1ccc(C(F)(F)F)cc1)N[C@@H]1O[C@H](CO)[C@@H](O)[C@H](O)[C@H]1O | – | – | 1.8 µM | –
37 | COC(=O)c1ccc(C(=O)N[C@@H]2O[C@H](CO)[C@@H](O)[C@H](O)[C@H]2O)cc1 | – | – | 329 µM | –
38 | O=C(Cc1ccccc1)NC(=O)N[C@@H]1O[C@H](CO)[C@@H](O)[C@H](O)[C@H]1O | – | – | 600 µM | –
39 | COC(=O)c1cccc(C(=O)N[C@@H]2O[C@H](CO)[C@@H](O)[C@H](O)[C@H]2O)c1 | – | – | 580 µM | –
40 | COC(=O)C(=O)N[C@@H]1O[C@H](CO)[C@@H](O)[C@H](O)[C@H]1O | – | – | 210 µM | –

Row | SMILES | Papp [1] | logP [2] | Ki ([3]; read-out: Ki) | Ki [3]
41 | CC(C)c1ccc(C[C@H](C)C(=O)N[C@@H]2O[C@H](CO)[C@@H](O)[C@H](O)[C@H]2O)cc1 | 7.67 ×10⁻⁶ cm/s | 0.01 | 75.3 µM | –
42 | O=C(CCc1ccccc1)N[C@@H]1O[C@H](CO)[C@@H](O)[C@H](O)[C@H]1O | – | – | 85 µM | –
43 | O=C(NC1CC1)C(=O)N[C@@H]1O[C@H](CO)[C@@H](O)[C@H](O)[C@H]1O | – | – | 1410 µM | –
44 | CC[C@H](CC(=O)N[C@@H]1O[C@H](CO)[C@@H](O)[C@H](O)[C@H]1O)c1ccc(C)c(C)c1 | 7.67 ×10⁻⁶ cm/s | 0.01 | – | –
45 | O=C(/C=C/c1ccc2ccccc2c1)N[C@@H]1O[C@H](CO)[C@@H](O)[C@H](O)[C@H]1O | – | – | 3.5 µM | –
46 | O=C(/C=C/c1ccccc1)N[C@@H]1O[C@H](CO)[C@@H](O)[C@H](O)[C@H]1O | – | – | 18 µM | –
47 | CC(C)c1ccc([C@@H](C)CC(=O)N[C@@H]2O[C@H](CO)[C@@H](O)[C@H](O)[C@H]2O)cc1 | 7.87 ×10⁻⁶ cm/s | 0.075 | – | –
48 | O=C(C#Cc1ccccc1)N[C@@H]1O[C@H](CO)[C@@H](O)[C@H](O)[C@H]1O | – | – | 61 µM | –
49 | COC(=O)CCC(=O)N[C@@H]1O[C@H](CO)[C@@H](O)[C@H](O)[C@H]1O | – | – | 170 µM | –
50 | CCOC(=O)C(=O)N[C@@H]1O[C@H](CO)[C@@H](O)[C@H](O)[C@H]1O | – | – | 920 µM | –
51 | O=C(N[C@@H]1O[C@H](CO)[C@@H](O)[C@H](O)[C@H]1O)C1CCCCC1 | – | – | 289 µM | –
52 | CC(C)N(C(=O)C(=O)N[C@@H]1O[C@H](CO)[C@@H](O)[C@H](O)[C@H]1O)C(C)C | – | – | – | Not Active
53 | C[C@@H](Cc1ccc(C(C)(C)C)cc1)C(=O)N[C@@H]1O[C@H](CO)[C@@H](O)[C@H](O)[C@H]1O | 10 ×10⁻⁶ cm/s | 0.379 | – | –
54 | Cc1ccc(-c2cnc(CCC(=O)N[C@@H]3O[C@H](CO)[C@@H](O)[C@H](O)[C@H]3O)o2)cc1 | 5.4 ×10⁻⁶ cm/s | -0.574 | – | –
55 | CCc1ccc(/C=C/C(=O)N[C@@H]2O[C@H](CO)[C@@H](O)[C@H](O)[C@H]2O)cc1 | 9.47 ×10⁻⁶ cm/s | 0.04 | – | –
56 | O=C(CCc1ncc(-c2ccccc2)o1)N[C@@H]1O[C@H](CO)[C@@H](O)[C@H](O)[C@H]1O | 3.65 ×10⁻⁶ cm/s | -0.915 | – | –
57 | O=C(Cn1cc(-c2ccccc2)nn1)N[C@@H]1O[C@H](CO)[C@@H](O)[C@H](O)[C@H]1O | – | – | 180 µM | –
58 | CC(C)(C(=O)N[C@@H]1O[C@H](CO)[C@@H](O)[C@H](O)[C@H]1O)c1cccc2ccccc12 | 14.7 ×10⁻⁶ cm/s | 0.085 | – | –
